{
  "source": "patent US6906175B2",
  "about": "“Production of adenine nucleotide translocator (ANT), novel ANT ligands and screening assays therefor” (priority 1998, dated 2005)",
  "key": {"[1]": {"target": "T1, bovine mitochondria (ANT) (Bos taurus, UniProt P02722)", "T1 construct": "from tissue; host or cells: bovine heart mitochondria", "T1 sequence (P02722 2-298 limits assumed)": "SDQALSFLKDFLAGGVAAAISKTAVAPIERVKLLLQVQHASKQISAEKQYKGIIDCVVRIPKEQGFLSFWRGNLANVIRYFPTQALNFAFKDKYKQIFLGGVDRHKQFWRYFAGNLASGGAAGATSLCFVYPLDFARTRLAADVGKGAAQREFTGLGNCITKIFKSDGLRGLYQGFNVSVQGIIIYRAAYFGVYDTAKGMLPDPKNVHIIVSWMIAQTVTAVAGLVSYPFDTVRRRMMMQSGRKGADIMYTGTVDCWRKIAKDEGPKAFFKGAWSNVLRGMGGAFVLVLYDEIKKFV", "assay": "125I-compound 24 competition binding (Tube Assay), beef heart mitochondria", "description": "Bovine mitochondria were prepared as follows: Essentially all of the fat and cholesterol […] was removed from two bovine hearts which were then cut into 1-inch cubes. The cubes were ground in a meat grinder using the fine setting. Three hundred (300) […] portions of the ground heart were weighed out and, to each was added 400 ml of Isolation Buffer (IB; 250 mM sucrose, 1 mM sodium succinate, 0.2 mM K^+EDTA, 10 mM Tris-base, pH 7.8). (All buffers were filter sterilized, and column buffers were degassed, and, unless otherwise noted, all steps were carried out at 0 to 4° C. on ice or in pre-cooled rotors and centrifuges.) The preparations were mixed in a blender two times for 15 seconds on high setting and, in between and after blends, the pH was adjusted to 7.8 with 2M Tris-base. The homogenate was centrifuged for 20 minutes at 1,200×g, and the supernatant was poured through two layers of cheese cloth and adjusted to pH 7.8 with 2M Tris-base. The supernatant was then centrifuged for 30 minutes at […]. The supernatant was decanted, and the buff-colored outer pellet was dislodged with about 10 ml of IB and discarded. The brown inner pellet (heavy mitochondria) was resuspended in IB (about 10 ml per pellet). The pellets were homogenized in a glass-teflon homogenizer (2 passes at high drill speed). Samples were combined and centrifuged for 30 minutes at 11,000×g. The supernatant was decanted, and the pellets were resuspended in 60 ml of IB per 900 gm of ground heart. This centrifugation step was repeated and the pellets were finally resuspended in IB (60 ml per 900 gm of ground heart). One kilogram of beef heart typically yields about one (1) gram of mitochondria\n(§1) The mitochondrial preparations were divided into aliquots (typically, 50μl for T. ni mitochondria or 20 μl for bovine mitochondria) and then either used directly in assays or flash frozen and stored at −80° C. The total protein content in the mitochondrial preparations was determined using the enhanced protocol (30 minutes at 60° C.; see http://www.ruf.rice.edu/˜bioslabs/methods/protein/BCA.html) of the bicinchoninic acid (BCA) assay (available in kit form from Pierce, Rockford, Ill.).\nIn the “Tube Assay,” mitochondria (from about 1 to 10 μg of total protein) were resuspended in 100 μl of Tris-KCl buffer with 0.1% BSA, pH 7.4. ^125I-labeled compound 24 (Example 11) was added to a final concentration of 0.5 nM. When used, competitors were added at these concentration ranges: unlabeled atractyloside or compound 24 final concentration from 5 nM to 10 μM; unlabeled ADP (a lower affinity competitor) was added at a final concentration of 500 nM to 1 mM.\nThe reaction mixes were incubated on ice for 60 minutes and then pelleted by centrifugation (approximately 16,000×g) for 11 minutes at 4° C.\nUnbound ^125I-compound 24 was removed by aspiration. The pellets were contact-washed with Tris-KCl buffer, pH 7.4, and recentrifuged. The resultant pellets were aspirated and the radioactivity (dpm) in each was determined by gamma counting."}, "[2]": {"target": "T2, GST-huANT3 recombinantly produced in E. coli (membranes) (Homo sapiens, UniProt P12236)", "T2 construct": "Gly-Ser-Pro-Gly-Ile-Leu-Met, where “Met” indicates the amino acid encoded by the translation initiation codon of huANT3; made in house; host or cells: E. coli (crude membrane preparation)", "T2 sequence (P12236 1-298)": "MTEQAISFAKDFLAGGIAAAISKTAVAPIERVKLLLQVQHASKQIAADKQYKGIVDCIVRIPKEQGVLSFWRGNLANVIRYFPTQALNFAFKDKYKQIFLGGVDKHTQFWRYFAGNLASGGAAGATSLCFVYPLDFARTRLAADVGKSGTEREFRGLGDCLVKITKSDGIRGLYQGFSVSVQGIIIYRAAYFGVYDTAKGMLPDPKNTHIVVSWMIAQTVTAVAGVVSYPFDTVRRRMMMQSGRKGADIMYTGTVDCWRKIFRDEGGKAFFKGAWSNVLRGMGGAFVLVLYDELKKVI", "assay": "Saturation binding of [32P]ATP to E. coli membranes, huANT3-producing cells", "settings": "atractyloside 10μM added to the assay", "description": "Following arabinose induction, transformed or sham transformed (vector only) E coli were collected by centrifugation at 2000 g for 10 min. The bacterial pellets were resuspended in MSB, to which lysozyme (100 μg/ml) was added. After 20 min at room temperature, the lysates were subjected to one freeze-thaw cycle followed by sonication as described above. The resultant membrane preparation was used for binding assays.\n[…] The membranes with bound ATP were sedimented by centrifugation at 5000 g for 5 min, and washed once with binding buffer. Membrane pellets were then mixed with 5 ml scintillation cocktail and counted."}, "[3]": {"assay": "125I-compound 24 competition binding (Tube Assay), mitochondria from control non-infected T. ni cells", "settings": "control (nontransformed) T. ni mitochondria, 1 μg protein/tube; FIG. 15", "description": "Atractyloside analogs (Example 6; Table 1; see also Examples 7-9) were also used in pseudo-homologous competition binding assays using T. ni/huANT3 mitochondria or bovine mitochondria. Mitochondria from noninfected T. ni cells, or T. ni cells infected with a baculovirus expressing huANT3 (see Example 3) were prepared as follows: […] cells were prepared by a subcontractor (PharMingen, San Diego, Calif.) as portions of about 250 mg of cells per tube. […]\nas §1, with “Ill.). […]” for “Ill.).”\nUnbound ^125I-compound 24 was removed by aspiration. […] The resultant pellets were aspirated and the radioactivity (dpm) in each was determined by gamma counting."}},
  "data": [
    {"smiles": "C=C1[C@@H]2CCC3[C@@](CC[C@@H]4[C@H](C(=O)O)C[C@@H](O[C@@H]5O[C@H](CO)[C@@H](OS(=O)(=O)[O-])[C@H](OS(=O)(=O)[O-])[C@H]5OC(=O)CC(C)C)C[C@@]34C)(C2)[C@@H]1O.[K+].[K+]", "note": "(some centres unmarked) [ATR, atractyloside]", "values": [
      {"measurement": "IC50", "setting": "[1]; 0.5 nM 125I-compound 24, FIG. 17, read-out: IC50, competitive inhibition of 125I-compound 24 binding", "value": "~44", "unit": "nM"},
      {"measurement": "affinity relative to the low affinity ANT ligand ADP", "setting": "[1]; 1 μg protein/tube, FIG. 13", "value": "about 1,000 fold"},
      {"measurement": "competitive inhibition of 125I-compound 24 binding (in words)", "setting": "[1]; FIGS. 11, 13, 16", "value": "slightly higher affinity than compound 24"},
      {"measurement": "effect on ATP binding", "setting": "[2]", "value": "abolished"},
      {"measurement": "competitive inhibition of 125I-compound 24 binding (in words)", "setting": "[3]", "value": "only slight inhibition"}
    ]}
  ]
}
